Molecular target: T1, human CaSR (Homo sapiens, UniProt P41180)
T1 sequence (P41180 20-1078): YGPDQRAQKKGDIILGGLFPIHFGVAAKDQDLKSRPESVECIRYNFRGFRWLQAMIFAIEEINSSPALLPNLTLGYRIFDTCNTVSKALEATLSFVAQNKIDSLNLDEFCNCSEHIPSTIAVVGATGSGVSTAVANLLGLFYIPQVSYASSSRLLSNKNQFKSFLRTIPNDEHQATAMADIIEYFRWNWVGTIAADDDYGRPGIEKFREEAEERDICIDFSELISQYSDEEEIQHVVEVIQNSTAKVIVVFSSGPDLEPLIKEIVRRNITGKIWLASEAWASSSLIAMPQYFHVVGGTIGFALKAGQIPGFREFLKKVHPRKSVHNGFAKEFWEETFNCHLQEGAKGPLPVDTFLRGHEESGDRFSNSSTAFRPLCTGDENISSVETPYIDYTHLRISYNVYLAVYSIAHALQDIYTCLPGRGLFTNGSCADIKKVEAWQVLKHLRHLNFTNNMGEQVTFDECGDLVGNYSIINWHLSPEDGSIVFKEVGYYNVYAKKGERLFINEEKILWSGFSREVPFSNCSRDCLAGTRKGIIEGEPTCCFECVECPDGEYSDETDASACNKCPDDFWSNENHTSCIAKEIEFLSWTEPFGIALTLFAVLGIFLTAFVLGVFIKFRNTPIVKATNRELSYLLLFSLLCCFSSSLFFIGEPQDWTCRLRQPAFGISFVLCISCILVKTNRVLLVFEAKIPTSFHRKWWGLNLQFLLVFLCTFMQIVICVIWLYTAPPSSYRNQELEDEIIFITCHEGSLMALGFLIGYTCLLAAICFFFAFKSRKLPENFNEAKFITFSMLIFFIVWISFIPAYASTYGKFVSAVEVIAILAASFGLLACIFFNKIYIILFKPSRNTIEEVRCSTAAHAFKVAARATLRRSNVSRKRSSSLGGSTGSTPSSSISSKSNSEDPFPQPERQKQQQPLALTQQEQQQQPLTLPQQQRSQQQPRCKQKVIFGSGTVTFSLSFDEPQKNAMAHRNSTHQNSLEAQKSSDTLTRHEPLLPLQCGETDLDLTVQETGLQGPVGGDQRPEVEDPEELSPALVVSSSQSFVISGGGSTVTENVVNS
Experiment: Functional whole cell assay (modulation of human CaSR), IP1 accumulation in CHO-K1 cells
Type: cell-based
Settings: CHO-K1 cells stably expressing human CaSR, final Ca2+ 1.9 mM, IP1 readout; concentration producing 50% of maximum agonistic response
Excerpt: The assay investigates a compound's functional ability to act as a biological positive modulator on the human CaSR. Activation of the receptor expressed on CHO-K1 cells is detected through the G alpha q pathway, the activation of phospholipase C and the accumulation of intracellular inositol phosphate (IP) as described earlier [Sandrine Ferry, Bruno Chatel, Robert H. Dodd, Christine Lair, Danielle Gully, Jean-Pierre Maffrand, and Martial Ruat. Effects of Divalent Cations and of a Calcimimetic on Adrenocorticotropic Hormone Release in Pituitary Tumor Cells. Biochemical and biophysical research Communications 238, 866-873 (1997)]. The human CaSR is stably expressed on a CHO-K1 cell clone, stimulated with a basal level of calcium and challenged with the tested compound. The level of IP1 is determined using the IP-One Terbium htrf kit (Cisbio, France). CHO-K1 cells not transfected with the CaSR fail to elicit an IP1 response upon calcium and/or compound stimulation.
The ORF coding for the human CaSR (genebank: NM_000388) was acquired from Invitrogen Corp, USA and subsequently cloned into the mammalian expression vector pCDA3.1.
CHO-K1 cells were transfected using Lipofectamine according to manufacturer's protocol (400.000 cells/well were seeded in a 6-well plate and transfected after 24 hours using 2 μg DNA and 5 μl lipofectamine). After another 24 hours the cells were detached, seeded and subjected to 1 mg/ml of G-418. Following 7 days growth single clones were picked, the CaSR expression evaluated using the 5C10 antibody against CaSR, the clones with the highest expression were selected and tested for functional response. The preferred clone was cultured according to standard procedures described in ATCC (American Type Culture Collection) protocols for CHO-K1 with the addition of 500 μg/ml G-418.
On the assay day, cells were thawed, harvested and resuspended to 4*10^6 cells/ml in stimulation buffer (containing: Hepes 10 mM, MgCl2 0.5 mM, KCl 4.2 mM, NaCl 146 mM, glucose 5.5 mM, LiCl 50 mM, BSA 0.5% at pH 7.4). Ten μl cell solution was pipetted into wells of a white 384-well plate (Perkin Elmer Optiplate) containing 2 μl compound diluted in assay buffer (containing: Hepes 10 mM, MgCl2 0.5 mM, KCl 4.2 mM, NaCl 146 mM, glucose 5.5 mM, LiCl 50 mM, CaCl2 11.4 mM at pH 7.4), resulting in a final Ca^2+ concentration of 1.9 mM. After compound stimulation for 1 hour at 37° C. and 15 min at room temperature, 10 ul of IP-One assay detection reagent (prepared as described by the IP-One assay kit manufacturer) was added and the plate was incubated for another 1 hour at room temperature. Finally the plate was read using a Perkin Elmer EnVision, according to the protocol supplied by the IP-One assay kit manufacturer. The FRET ratio was calculated by dividing the 665 nm emission signal with that of the 615 nm.
The molar concentration of a compound that produces 50% of the maximum agonistic response (the […] value) is calculated according to the equation “General sigmoidal curve with Hill slope, a to d” (Equation 1). This model describes a sigmoidal curve with an adjustable baseline. The equation can be used to fit curves where response is either increasing or decreasing with respect to the independent variable, X. […]
y=(a−d)/(1+(x/c)̂b)+d Equation 1 x=concentration of tested compound […]
a=min response as compound concentration approaches 0 d=max response as concentration of tested compound is increasing […]
b=Hill coefficient or curve slope

Compound | EC50 [nM]
C[C@@H](N[C@H]1CC[C@@H](c2ccc(OCC(=O)NC3CCNCC3)cc2)C1)c1cccc2ccccc12 [Compound 112, 2-[4-[(1R,3S)-3-[[(1R)-1-(1-Naphthyl)ethyl]amino]cyclopentyl]-phenoxy]-N-(4-piperidyl)acetamide] | < 200
COc1cc([C@@H](C)N[C@H]2CC[C@@H](c3ccc(OCC(=O)NCCNS(C)(=O)=O)cc3)C2)ccc1F [Compound 108, 2-[4-[(1R,3S)-3-[[(1R)-1-(4-Fluoro-3-methoxy-phenyl)ethyl]-amino]-cyclopentyl]phenoxy]-N-[2-(methanesulfonamido)ethyl]acetamide] | < 200
COc1cc([C@@H](C)N[C@H]2CC[C@@H](c3ccc(OCC(=O)NCCS(N)(=O)=O)cc3)C2)ccc1F [Compound 104, 2-[4-[(1R,3S)-3-[[(1R)-1-(4-Fluoro-3-methoxy-phenyl)ethyl]-amino]-cyclopentyl]phenoxy]-N-(2-sulfamoylethyl)acetamide] | < 200
COc1cc([C@@H](C)N[C@H]2CC[C@@H](c3ccc(OCC(=O)NCCNCCO)cc3)C2)ccc1F [Compound 106, 2-[4-[(1R,3S)-3-[[(1R)-1-(4-Fluoro-3-methoxy-phenyl)ethyl]-amino]-cyclopentyl]phenoxy]-N-[2-(2-hydroxyethylamino)ethyl]acetamide] | < 200
COc1cc([C@@H](C)N[C@H]2CC[C@@H](c3ccc(OCC(=O)N4CCN(C(C)=O)CC4)cc3)C2)ccc1F [Compound 109, 1-(4-Acetylpiperazin-1-yl)-2-[4-[(1R,3S)-3-[[(1R)-1-(4-fluoro-3-methoxy-phenyl)ethyl]amino]cyclopentyl]phenoxy]ethanone] | < 200
COc1cc([C@@H](C)N[C@H]2CC[C@@H](c3ccc(OCC(=O)N4CCNCC4)cc3)C2)ccc1F [Compound 103, 2-[4-[(1R,3S)-3-[[(1R)-1-(4-Fluoro-3-methoxy-phenyl)ethyl]-amino]-cyclopentyl]phenoxy]-1-piperazin-1-yl-ethanone] | < 200
COc1cc([C@@H](C)N[C@H]2CC[C@@H](c3ccc(OCC(=O)N4CCN(S(N)(=O)=O)CC4)cc3)C2)ccc1F [Compound 110, 4-[2-[4-[(1R,3S)-3-[[(1R)-1-(4-Fluoro-3-methoxy-phenyl)-ethyl]-amino]cyclopentyl]phenoxy]acetyl]piperazine-1-sulfonamide] | < 200
